Values joined by “and” are separate entries in the source; they are usually repeats but may differ in a detail not shown here. Equal entries are not always repeated.
Assays:
[1] = molecular target: T1, hSERT (Homo sapiens, UniProt P31645); experiment: SERT uptake SPA in hSERT-CHO cells; assay type: cell-based; conditions: for IC50: [3H]-serotonin uptake, hSERT-CHO cells, read-out: SERT Uptake SPA (pIC50) (converted)
T1 construct: expressed in transfected cells; host or cells: CHO (hSERT-CHO)
Experimental: (§4) Briefly, on experiment days, hDAT-CHO cells were detached using Versene and added at a density of approximately 300,000 cells/mL to the SPA Mixture, which contains the following components in Assay Buffer (20 mM HEPES, 145 mM NaCl, 5 mM KCl, 2 mM CaCl2), 1 mM MgCl2, 5.5 mM glucose, 0.01% Pluronic F127, pH 7.3): 0.75 mg/mL SPA Imaging beads (RPNQ0001, PerkinElmer), 10 μM pargyline and 80 nM of [3H]-dopamine (NET673, PerkinEImer). The SPA Mixture was added 20 μL/well to 384 well plates containing 0.1 μL/well of test compound in neat DMSO (11 points of 1:5 serial dilution, 0.5% DMSO final) or 0.1 μL of DMSO (total uptake) or 0.1 μL of the standard inhibitor indatraline (at 1 μM final concentration, as nonspecific uptake). Plates were sealed with a Top-seal A and read using a Microbeta counter (PerkinElmer) after 45 minutes of incubation at room temperature. […] The SPA Mixture was added 20 μL/well to 384 well plates containing 0.1 μL/well of test compound in neat DMSO (11 points of 1:5 serial dilution, 0.5% DMSO final), 0.1 μL of DMSO (total uptake), or 0.1 μL of the standard inhibitor indatraline (1 μM, nonspecific uptake). Plates were sealed with a Top-seal A and read using a Microbeta counter (PerkinElmer) after 120 minutes of incubation at room temperature.
For both tests, the raw experimental data (cpm) were elaborated for the determination of pIC50/IC50 values as % inhibition of specific uptake. Concentration-response curves of MDMA, MDDMA, citalopram and GBR-12909 were used as internal standards in all experiments, and the signal window was monitored in each plate performing Z′ calculations, as described in Zhang et al., J Biomol Screen.

[2] = molecular target: T2, human DAT (Homo sapiens, UniProt Q01959); experiment: DAT uptake SPA in hDAT-CHO cells; assay type: cell-based; conditions: [3H]-dopamine uptake, hDAT-CHO cells; read-out: DAT Uptake SPA (pIC50) (converted)
T2 construct: expressed in transfected cells; host or cells: CHO (hDAT-CHO)
Experimental: Methods-Evaluation of Monoamine Uptake/Transporter Inhibition: Inhibitory activity on DAT function was measured using an uptake assay in a recombinant CHO cell line stably expressing human DAT (hDAT-CHO). Potency was measured in terms of pIC50 by testing for inhibition of [3H]-dopamine uptake in hDAT-CHO cells in a multiwell format SPA.
as §4
For both tests, the raw experimental data (cpm) were elaborated for the determination of pIC50/IC50 values as % inhibition of specific uptake.

[3] = test system: 5-HT release in rat synaptosomes; experiment: Serotonin release assay in rat cortex synaptosomes; assay type: biochemical; conditions: for 5-HT Release (pEC50): rat cortex synaptosomes, % of maximal release with 50 μM MDMA, n=2; for SERT/DAT Release Ratio: ratio of 5-HT and DA release potency, rat synaptosomes
Experimental: (§1) Methods-Evaluation of Monoamine Release: The potency of therapeutic compounds for stimulating DA release was measured by an endpoint release filtration assay in a 96-well format using rat synaptosomes, essentially as described by Sandtner et al. (Mol Pharmacol., 2016; 89(1):165-75.) and Baumann et al. (Neuropsychopharmacol, 2013; 38:552-562.) with some variations. One male rat was euthanized, and striatum/cortex regions were dissected over ice. The striatum portions were weighed and put in a glass tube containing ice-cold 0.32 M sucrose (dilution 1:24 w/v) for homogenization, while the frontal cortex tissue was diluted in ice-cold 0.32 M sucrose, 1:20 w/v. Tissues were homogenized and centrifuged for 10 mins at 1000×g. The two supernatants from striatum and cortex (crude synaptosomes) were retained on ice until use.
(§2) Test compounds were then serially diluted 1:4 in neat DMSO as concentration-response curves (CRC) of 11 points. To each well of a 2-mL 96 deep-well plate (Whatman UNIPLATE 96 well) were added: 2 μL of a concentration-response curve (CRC) of test compounds or 2 μL of DMSO (no-release condition) or 2 μL of MDMA 10 mM solution (final 50 μM, for maximal release), followed by 200 μL/well of complete Krebs-phosphate buffer (126 mM NaCl, 2.4 mM KCl, 0.83 mM CaCl2), 0.8 mM MgCl2, 0.5 mM KH2PO4, 0.5 mM Na2SO4, 11.1 mM glucose, 0.05 mM pargyline, 1 mg/mL ascorbic acid, freshly added, pH 7.4), containing 1 μM reserpine to block vesicular uptake of substrate. Desipramine (100 nM) and citalopram (100 nM) were also added to the release assay buffer in order to inhibit NET and SERT uptake, respectively. The final compound dilution, then, was 1:200 in 0.5% DMSO.
(§3) The raw data (cpm) from residual radioactivity onto the filter were elaborated for the determination of pEC50/EC50 values. Specifically, the compound effect was expressed as the percent of maximal release obtained with 50 μM MDMA (100% release) in comparison to vehicle (0.5% DMSO, 0% release). Both MDMA and D-amphetamine in CRC were used as internal controls in each release experiment. In each plate, for both 0% and 100% of release, the signal window was monitored and Z′ calculations were determined using the raw data of four replicates. 5-HT release was calculated in an identical fashion, except that 5 nM 3H-serotonin was added to crude cortex synaptosomes preparation diluted 1:13 (v/v) in complete Krebs-phosphate buffer containing 1 μM Reserpine, 100 nM GBR12909 and 100 nM nomifensine to block vesicular, DAT, and NET uptake, respectively. Synaptosomes were then loaded with 3H-5HT for 60 minutes at RT. After dispensing loaded synaptosomes onto a compound plate (200 μL/well), the release reaction proceeded for an additional 15 minutes. Stop by filtration, counting, and data elaboration were performed as described for DA release. Compounds were tested in duplicate (n=2).

[4] = test system: DA release in rat synaptosomes; experiment: Dopamine release assay in rat striatal synaptosomes; assay type: biochemical; conditions: % of maximal release with 50 μM MDMA, n=2
Experimental: as §1, §2
3H-Dopamine was added to the tube containing the crude striatal synaptosomes preparation, diluted 1:20 (v/v) in complete Krebs-phosphate buffer, and was incubated at RT and gently mixed for 60 minutes. Then, 200 μL/well of 3H-DA loaded synaptosomes were dispensed to the compound plate (final 400 μL/well), and the release reaction proceeded for an additional 15 minutes at RT. The release was terminated by vacuum filtration and washing three times with 1 mL of saline solution (NaCl 0.9%) at RT. The retained radioactivity was counted in a scintillation counter after the addition of 50 μL/well Microscint-20.
as §3

[5] = test system: DAT/SERT; conditions: Simmler et al., Br J Pharmacol. 2013; cited from earlier work

T1 sequence (P31645 whole entry): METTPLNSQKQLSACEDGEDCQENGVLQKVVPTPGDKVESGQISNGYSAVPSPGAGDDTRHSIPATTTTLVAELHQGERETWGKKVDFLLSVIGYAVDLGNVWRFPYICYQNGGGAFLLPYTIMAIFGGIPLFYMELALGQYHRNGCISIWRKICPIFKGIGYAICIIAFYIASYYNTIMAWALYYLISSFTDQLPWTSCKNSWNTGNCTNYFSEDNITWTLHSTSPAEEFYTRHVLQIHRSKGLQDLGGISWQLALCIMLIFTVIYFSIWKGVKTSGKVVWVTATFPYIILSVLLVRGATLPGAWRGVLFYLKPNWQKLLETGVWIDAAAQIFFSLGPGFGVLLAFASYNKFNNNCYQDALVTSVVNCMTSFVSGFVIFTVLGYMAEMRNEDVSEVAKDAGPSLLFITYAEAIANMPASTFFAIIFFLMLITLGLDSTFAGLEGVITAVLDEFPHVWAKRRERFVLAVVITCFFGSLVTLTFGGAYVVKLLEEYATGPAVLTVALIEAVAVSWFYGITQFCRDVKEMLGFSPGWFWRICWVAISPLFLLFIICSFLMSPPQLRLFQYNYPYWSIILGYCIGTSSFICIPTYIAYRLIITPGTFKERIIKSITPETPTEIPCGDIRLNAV
T2 sequence (Q01959 whole entry): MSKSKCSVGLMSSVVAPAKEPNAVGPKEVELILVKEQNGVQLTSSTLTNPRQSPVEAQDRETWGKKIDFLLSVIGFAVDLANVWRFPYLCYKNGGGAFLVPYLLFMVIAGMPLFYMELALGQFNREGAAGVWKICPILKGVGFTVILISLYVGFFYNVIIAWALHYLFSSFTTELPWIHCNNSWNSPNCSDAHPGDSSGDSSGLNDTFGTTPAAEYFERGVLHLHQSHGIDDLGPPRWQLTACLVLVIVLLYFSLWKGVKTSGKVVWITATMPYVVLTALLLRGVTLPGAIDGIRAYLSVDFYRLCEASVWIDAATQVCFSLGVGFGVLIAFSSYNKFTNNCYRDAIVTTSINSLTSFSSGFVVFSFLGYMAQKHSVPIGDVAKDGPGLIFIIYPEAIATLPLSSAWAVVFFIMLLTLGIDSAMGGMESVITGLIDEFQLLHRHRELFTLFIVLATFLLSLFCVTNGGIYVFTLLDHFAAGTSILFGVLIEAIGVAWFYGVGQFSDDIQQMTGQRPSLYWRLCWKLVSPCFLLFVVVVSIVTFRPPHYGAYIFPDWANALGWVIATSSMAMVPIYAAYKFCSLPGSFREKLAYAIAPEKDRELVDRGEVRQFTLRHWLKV

SMILES | IC50 [1] [µM] | SERT/DAT Uptake Ratio ([1]; calculated as 1/SERT IC50:1/DAT IC50) | IC50 [2] [µM] | 5-HT Release (pEC50) [3] | SERT/DAT Release Ratio [3] | DA Release (pEC50) [4] | DAT/SERT ratio [5]
COC(=O)Cc1ccc2c(c1)CC(N)C2 (centres unmarked) [CMP-406] | 63.1 | >1.6 | > 100 | 4.3 | >2.0 | <4.0 | –
COC(=O)CCc1ccc2c(c1)CC(N)C2 (centres unmarked) [CMP-407] | 25.1 | – | 63.1 | <4.0 | <0.25 | 4.6 | –
COC(=O)Cc1cc2c(cc1OC)CC(N)C2 (centres unmarked) [CMP-408] | 39.8 | – | 100 | 4.6 | 3.9 | <4.0 | –
CN[C@@H](C)Cc1ccccc1 [methamphetamine] | – | – | – | – | – | – | > 10 and 10

From patent US20260159474A1, “Aminoindane Compounds and Compositions and Methods of Their Therapeutic Use” (Solvonis Therapeutics Ireland Holdings Limited, priority 2021, published 2026)
